The numbers were not newly measured in US11795119B2, “Stabilized DCD and/or alkyl thiophosphoric triamide solvent systems and use in agricultural applications” (RHODIA OPERATIONS, priority 2016, dated 2023), which cites them from elsewhere.

The conditions of data set [1]: typically above 45° C.

Consider `N#CNC(=N)N` [Dicyandiamide, 2-cyanoguanidine], for which the solubility in water result is “about 41 g/l”.

As for `CCCCNP(N)(N)=S` [NBPT, N-(n-butyl)-thiophosphoric triamide], the “degradation at higher temperature” value in data set [1] is “degrades rapidly”.
